Measured values taken from US12215106B2, “Pharmaceutical compounds and therapeutic methods” (RUTGERS, THE STATE UNIVERSITY OF NEW JERSEY, priority 2018, dated 2025).
Counter-ions that a name gives are not always drawn. Like-named read-outs stand apart in the source and are kept apart here.

Experiment: Plasma pharmacokinetics and brain distribution after single IV, IP and oral administration
Type: in vivo
Procedure: (§1) The objective of this study was to investigate the plasma pharmacokinetics and brain distribution of Compound (14 in male C57BL/6 mice following a single intravenous, intraperitoneal and oral administration. A group of sixty-three male mice were divided into three groups (Group 1: 2 mg/kg/IV; Group 2: 10 mg/kg/IP and Group 3: 10 mg/kg/PO) with each group comprising of twenty-one mice.
Animals in Group 1 were administered intravenously with Compound 15 solution formulation in 5% NMP, 5% Solutol HS-15, 30% PEG-400 and 60% Captisol (20% w/v) at 2 mg/kg dose. […] Considering mortality intravenous dose was reduced to 2 mg/kg.
Animals in Group 2 and 3 were administered with Compound 15 solution formulation in 5% NMP, 5% Solutol HS-15, 30% PEG-400 and 60% Captisol (20% w/v) at a dose of 10 mg/kg by intraperitoneal and oral route respectively.
(§2) Blood samples (approximately 60 μL) were collected under light isoflurane anesthesia from retro orbital plexus from a set of three mice at 0.08, 0.35, 1, 3, 6, 12 and 24 hr. Plasma samples were separated by centrifugation of whole blood and stored below −70±10° C. until bioanalysis. Immediately after collection of blood, brain samples were collected from set of three mice at each time point. Brain samples were homogenized using ice-cold phosphate buffer saline (pH-7.4) in a ratio of 2 (buffer):1(brain); and homogenates were stored below −70±10° C. until analysis. Total homogenate volume was three times the brain weight. All samples were processed for analysis by protein precipitation using acetonitrile and analyzed with fit-for-purpose LC/MS/MS method (LLOQ2.00 ng/mL for plasma and 3.00 ng/g for brain). Pharmacokinetic parameters were calculated using the non-compartmental analysis tool of Phoenix WinNonlin® (Version 7.0). Pharmacokinetic parameters of Compound 15 are summarized below.
as §1, with “Compound 16” for “Compound (14”, “1: 10” for “1: 2”
Animals in Group 1 were administered intravenously with Compound 16 solution formulation in 5% NMP, 5% Solutol HS-15 and 90% normal saline at 10 mg/kg dose.
Animals in Group 2 and 3 were administered with Compound 16 solution formulation in 5% NMP, 5% Solutol HS-15 and 90% normal saline at a dose of 10 mg/kg by intraperitoneal and oral route respectively.
as §2, with “(LLOQ—1.00” for “(LLOQ2.00”, “16” for “15”
as §1, with “17” for “(14”, “mice. […]” for “mice.”

[1] = male, C57BL/6, mouse, brain, ip, 10 mg/kg, IP 10 mg/kg, read-out: Brain-to-plasma ratio
[2] = male, C57BL/6, mouse, brain, po, 10 mg/kg, PO 10 mg/kg, read-out: Brain-to-plasma ratio
[3] = male, C57BL/6, mouse, in vivo, ip, 10 mg/kg
[4] = male, C57BL/6, mouse, in vivo, ip, 10 mg/kg, 12 h
[5] = male, C57BL/6, mouse, in vivo, ip, 10 mg/kg, 24 h
[6] = male, C57BL/6, mouse, in vivo, ip, 10 mg/kg, Brain concentration, individual animal
[7] = male, C57BL/6, mouse, in vivo, ip, 10 mg/kg, Mean brain conc.
[8] = male, C57BL/6, mouse, in vivo, ip, 10 mg/kg, Mean plasma conc.
[9] = male, C57BL/6, mouse, in vivo, ip, 10 mg/kg, Plasma concentration, individual animal
[10] = male, C57BL/6, mouse, in vivo, iv, 2 mg/kg
[11] = male, C57BL/6, mouse, in vivo, iv, 2 mg/kg, 6 h
[12] = male, C57BL/6, mouse, in vivo, iv, 2 mg/kg, 12 h
[13] = male, C57BL/6, mouse, in vivo, iv, 2 mg/kg, 24 h
[14] = male, C57BL/6, mouse, in vivo, iv, 2 mg/kg, Brain concentration, individual animal
[15] = male, C57BL/6, mouse, in vivo, iv, 2 mg/kg, Mean brain conc.
[16] = male, C57BL/6, mouse, in vivo, iv, 2 mg/kg, Mean plasma conc.
[17] = male, C57BL/6, mouse, in vivo, iv, 2 mg/kg, Plasma concentration, individual animal
[18] = male, C57BL/6, mouse, in vivo, po, 10 mg/kg
[19] = male, C57BL/6, mouse, in vivo, po, 10 mg/kg, 24 h
[20] = male, C57BL/6, mouse, in vivo, po, 10 mg/kg, Brain concentration, individual animal
[21] = male, C57BL/6, mouse, in vivo, po, 10 mg/kg, Mean brain conc.
[22] = male, C57BL/6, mouse, in vivo, po, 10 mg/kg, Mean plasma conc.
[23] = male, C57BL/6, mouse, in vivo, po, 10 mg/kg, Plasma concentration, individual animal
[24] = male, C57BL/6, mouse, in vivo, IV 2 mg/kg, read-out: Brain-to-plasma ratio

Which results are given for `[2H]C([2H])([2H])Oc1ccc(Nc2nc(-c3c(C)nc4ccccn34)cs2)cc1` [Compound 15, N-(4-(methoxy-d3)phenyl)-4-(2-methylimidazo[1,2-c]pyridin-3-yl)thiazol-2-amine hydrochloride]?
Kp at 0.08 h [1]: 0.19; Kp at 0.35 h [1]: 0.63; Kp at 1 h [1]: 0.75; Kp at 3 h [1]: 0.36; Kp at 6 h [1]: 0.38; Kp (male, C57BL/6, mouse, brain, ip, 10 mg/kg, IP 10 mg/kg, read-out: brain-to-plasma ratio, range over time): 0.19 to 0.75; Kp (male, C57BL/6, mouse, brain, iv, 2 mg/kg, IV 2 mg/kg, read-out: brain-to-plasma ratio, range over time): 1.17 to 1.64; Kp at 0.08 h [2]: 0.1; Kp at 0.35 h [2]: 0.41; Kp at 1 h [2]: 1.03; Kp at 3 h [2]: 0.7; Kp at 6 h [2]: 0.6; Kp at 12 h (male, C57BL/6, mouse, brain, po, 10 mg/kg, PO 10 mg/kg, 12 hr, read-out: Brain-to-plasma ratio): 0.62; Kp (male, C57BL/6, mouse, brain, po, 10 mg/kg, PO 10 mg/kg, read-out: brain-to-plasma ratio, range over time): 0.1 to 1.03; Kp (male, C57BL/6, mouse, brain, po, 10 mg/kg, summary data, read-out: Brain to plasma ratio following a single oral dose): 1.03; Brain concentrations quantifiable up to [3]: up to 6 hr; Plasma concentrations quantifiable up to [3]: up to 6 hr; Brain concentration, individual animal [4]: 0.00 ng/g; Plasma concentration, individual animal [4]: 0.00 ng/mL; Brain concentration, individual animal [5]: 0.00 ng/g; Plasma concentration, individual animal [5]: 0.00 ng/mL; concentration at 0.08 h [6]: 38.4 ng/g; concentration at 0.35 h [6]: 287 ng/g; concentration at 1 h [6]: 383 ng/g; concentration at 3 h [6]: 48.4 ng/g; concentration at 12 h [6]: 0 ng/g; concentration at 24 h [6]: 0 ng/g; concentration at 0.08 h [7]: 43.6 ng/g; concentration at 0.35 h [7]: 266 ng/g; concentration at 1 h [7]: 305 ng/g; concentration at 3 h [7]: 57.7 ng/g; concentration at 6 h [7]: 6.06 ng/g; concentration at 12 h [7]: 0 ng/g; concentration at 24 h [7]: 0 ng/g; concentration at 0.08 h [8]: 229 ng/mL; concentration at 0.35 h [8]: 422 ng/mL; concentration at 1 h [8]: 409 ng/mL; concentration at 3 h [8]: 160 ng/mL; concentration at 6 h [8]: 16.1 ng/mL; concentration at 12 h [8]: 0 ng/mL; concentration at 24 h [8]: 0 ng/mL; concentration at 0.08 h [9]: 228 ng/mL; concentration at 0.35 h [9]: 467 ng/mL; concentration at 1 h [9]: 563 ng/mL; concentration at 3 h [9]: 174 ng/mL; concentration at 12 h [9]: 0 ng/mL; concentration at 24 h [9]: 0 ng/mL; Brain concentrations quantifiable up to [10]: up to 3 hr; Vss, fold more than normal volume of total body water (0.7 L/kg) [10]: 11 fold; Brain concentration, individual animal [11]: 0.00 ng/g; Plasma concentration, individual animal [11]: 0.00 ng/mL; Brain concentration, individual animal [12]: 0.00 ng/g; Plasma concentration, individual animal [12]: 0.00 ng/mL; Brain concentration, individual animal [13]: 0.00 ng/g; Plasma concentration, individual animal [13]: 0.00 ng/mL; concentration at 0.08 h [14]: 392 ng/g; concentration at 0.35 h [14]: 270 ng/g; concentration at 1 h [14]: 67.2 ng/g; concentration at 6 h [14]: 0 ng/g; concentration at 12 h [14]: 0 ng/g; concentration at 24 h [14]: 0 ng/g; concentration at 0.08 h [15]: 366 ng/g; concentration at 0.35 h [15]: 231 ng/g; concentration at 1 h [15]: 80 ng/g; concentration at 3 h [15]: 27.2 ng/g; concentration at 6 h [15]: 0 ng/g; concentration at 12 h [15]: 0 ng/g; concentration at 24 h [15]: 0 ng/g; concentration at 0.08 h [16]: 313 ng/mL; concentration at 0.35 h [16]: 149 ng/mL; concentration at 1 h [16]: 61.9 ng/mL; concentration at 3 h [16]: 16.6 ng/mL; concentration at 6 h [16]: 0 ng/mL; concentration at 12 h [16]: 0 ng/mL; concentration at 24 h [16]: 0 ng/mL; concentration at 0.08 h [17]: 298 ng/mL; concentration at 0.35 h [17]: 139 ng/mL; concentration at 6 h [17]: 0 ng/mL; concentration at 12 h [17]: 0 ng/mL; concentration at 24 h [17]: 0 ng/mL; Brain concentrations quantifiable up to [18]: up to 12 hr; Plasma concentrations quantifiable up to [18]: up to 12 hr; Brain concentration, individual animal [19]: 0.00 ng/g; Plasma concentration, individual animal [19]: 0.00 ng/mL; concentration at 0.08 h [20]: 8.31 ng/g; concentration at 1 h [20]: 190 ng/g; concentration at 24 h [20]: 0 ng/g; concentration at 0.08 h [21]: 7.99 ng/g; concentration at 0.35 h [21]: 108 ng/g; concentration at 1 h [21]: 253 ng/g; concentration at 3 h [21]: 66 ng/g; concentration at 6 h [21]: 6.63 ng/g; concentration at 12 h [21]: 3.63 ng/g; concentration at 24 h [21]: 0 ng/g; concentration at 0.08 h [22]: 78.2 ng/mL; concentration at 0.35 h [22]: 261 ng/mL; concentration at 1 h [22]: 245 ng/mL; concentration at 3 h [22]: 93.7 ng/mL; concentration at 6 h [22]: 11.1 ng/mL; concentration at 12 h [22]: 5.82 ng/mL; concentration at 24 h [22]: 0 ng/mL; concentration at 0.35 h [23]: 251 ng/mL; concentration at 12 h [23]: 8.42 ng/mL; concentration at 24 h [23]: 0 ng/mL; Kp at 0.08 h [24]: 1.17; Kp at 0.35 h [24]: 1.55; Kp at 1 h [24]: 1.29; Kp at 3 h [24]: 1.64; bioavailability (male, C57BL/6, mouse, plasma, po, 10 mg/kg, PO 10 mg/kg, AUClast considered, read-out: Oral bioavailability, % F): 64%; bioavailability (male, C57BL/6, mouse, plasma, po, 10 mg/kg, summary data, read-out: Oral bioavailability): 64%; Tmax (male, C57BL/6, mouse, plasma, IP 10 mg/kg): 21 min; clearance (male, C57BL/6, mouse, plasma, IV 2 mg/kg, read-out: CL, plasma clearance): 130 mL/min/kg; half-life (male, C57BL/6, mouse, plasma, IV 2 mg/kg, read-out: T1/2, terminal elimination half-life (converted)): 52.8 min; Tmax (male, C57BL/6, mouse, plasma, PO 10 mg/kg): 21 min; mortality immediately after dose administration (mouse, in vivo, iv, 10 mg/kg): mortality was observed in four animals
